Laboratory results as given in ChEMBL document CHEMBL3727348, “3-(aryl or heteroaryl) methyleneindolin-2-one derivatives as inhibitors of cancer stem cell pathway kinases for the treatment of cancer” (2014).
pIC50: −log10 of the molar value.

Experiments:
Format in all cases: functional, cell-based
[1] = test system: FaDu; assay: Cytotoxic activity against human FADU bulk cells incubated for 72 hrs by Cell-titer-Glo luminescence assay
[2] = test system: A549; assay: Cytotoxic activity against human A549 bulk cells incubated for 72 hrs by Cell-titer-Glo luminescence assay; settings: A549, 72 h
[3] = test system: ACHN; assay: Cytotoxic activity against human ACHN bulk cells incubated for 72 hrs by Cell-titer-Glo luminescence assay
[4] = test system: FaDu; assay: Cytotoxic activity against human FADU cancer stem cells incubated for 72 hrs by Cell-titer-Glo luminescence assay
[5] = test system: A549; assay: Cytotoxic activity against human A549 cancer stem cells incubated for 72 hrs by Cell-titer-Glo luminescence assay; settings: A549, 72 h
[6] = test system: ACHN; assay: Cytotoxic activity against human ACHN cancer stem cells incubated for 72 hrs by Cell-titer-Glo luminescence assay

| SMILES | pIC50 [1] | pIC50 [2] | pIC50 [3] | pIC50 [4] | pIC50 [5] | pIC50 [6] |
| --- | --- | --- | --- | --- | --- | --- |
| Cc1[nH]c(/C=C2\C(=O)Nc3ccc(-c4csc(-c5ccccc5)n4)cc32)c(C)c1S(=O)(=O)N1CCOCC1 | 4.94 | 5.14 | 4.97 | 6.68 | 5.43 | 6.25 |
| CCN(CC)CCNC(=O)c1c(C)[nH]c(/C=C2\C(=O)Nc3ccc(-c4cscc4C)cc32)c1C | 5.43 | 5.70 | 5.57 | 5.04 | 5.40 | 6.32 |
| CCN(CC)CCNC(=O)c1c(C)[nH]c(/C=C2\C(=O)Nc3ccc(-c4ccc(-c5ccccc5)nc4)cc32)c1C | 5.31 | 5.64 | 5.13 | 5.40 | 5.19 | 6.20 |
| CCN(CC)CCNC(=O)c1c(C)[nH]c(/C=C2\C(=O)Nc3cc(-c4ccc(C(=O)c5ccccc5)cc4)ccc32)c1C | 5.35 | 5.44 | 5.39 | 5.84 | 5.50 | 5.79 |
| CCN(CC)CCN1CCCc2[nH]c(/C=C3\C(=O)Nc4ccc(-c5csc(C6CCNCC6)n5)cc43)c(C)c2C1=O | 5.06 | 5.15 | – | – | – | 4.93 |
| O=C1Nc2ccc(-c3csc(-c4ccccc4)n3)cc2/C1=C/c1ncc[nH]1 | 5.12 | 4.76 | 5.84 | 5.60 | 5.64 | 5.54 |
| Cc1[nH]c(/C=C2\C(=O)Nc3ccc(-c4csc(-c5ccccc5)n4)cc32)c(C)c1S(=O)(=O)N1CCCC1 | 5.26 | 5.54 | 4.90 | 5.18 | – | 5.30 |
| COC(=O)c1c(C)[nH]c(/C=C2\C(=O)Nc3ccc(-c4csc(-c5ccncc5)n4)cc32)c1C | 4.73 | 5.02 | 4.90 | 5.17 | 5.32 | 5.21 |
| CCN(CC)CCNC(=O)c1c(C)[nH]c(/C=C2\C(=O)Nc3cc(-c4csc(-c5ccccc5)n4)ccc32)c1C | 5.74 | – | – | 6.22 | 5.43 | 6.72 |
| Cc1cc(C)c(/C=C2\C(=O)Nc3ccc(-c4cnsc4)cc32)[nH]1 | 4.57 | – | 4.37 | 4.36 | – | 4.77 |
| Cc1cc(C)c(/C=C2\C(=O)Nc3cc(-c4cnc5ccccc5n4)ccc32)[nH]1 | – | 4.74 | – | 5.06 | 5.23 | 5.60 |
| CSc1cnc(-c2ccc3c(c2)/C(=C/c2[nH]c(C)cc2C)C(=O)N3)cn1 | – | 4.45 | 6.80 | – | – | 4.74 |
| O=C1Nc2ccc(-c3csc(-c4ccncc4)n3)cc2/C1=C/c1ncc[nH]1 | 5.47 | 4.83 | 6.54 | – | 5.59 | 5.04 |
| CCN(CC)CCNC(=O)c1c(C)[nH]c(/C=C2\C(=O)Nc3ccc(-c4csc(C(=O)O)c4)cc32)c1C | – | 5.11 | 5.11 | 4.85 | 4.85 | 5.89 |
| O=C1Nc2ccc(-c3csc(-c4ccccc4)n3)cc2/C1=C/c1cc2c([nH]1)CCCC2 | 4.69 | – | 4.46 | 5.39 | 5.85 | 5.60 |
| Cc1ccc(-c2nc(-c3ccc4c(c3)/C(=C/c3[nH]c(C)c(C(=O)N5CCN(C)CC5)c3C)C(=O)N4)cs2)cc1 | 5.10 | 5.07 | 5.37 | 5.70 | 6.35 | – |
| Cc1ccc(-c2ccc3c(c2)NC(=O)/C3=C\c2[nH]c(C)cc2C)cn1 | – | – | 4.66 | 5.44 | 4.63 | 5.34 |
| CCN(CC)CCNC(=O)c1c(C)[nH]c(/C=C2\C(=O)Nc3cc(-c4ccc(-c5ccccc5)nc4)ccc32)c1C | – | 4.83 | – | 5.95 | 5.44 | 6.68 |
| CCN(CC)CCNC(=O)c1c(C)[nH]c(/C=C2\C(=O)Nc3cc(-c4nccc5ccccc45)ccc32)c1C | 5.04 | 5.15 | 5.19 | 4.61 | – | 5.72 |
| CCOC(=O)c1[nH]c(/C=C2\C(=O)Nc3ccc(-c4csc(-c5ccccc5)n4)cc32)c2c1CCCC2 | – | – | 6.08 | 5.54 | – | 5.80 |

| SMILES | pIC50 [1] | pIC50 [2] | pIC50 [3] | pIC50 [4] | pIC50 [5] | pIC50 [6] |
| --- | --- | --- | --- | --- | --- | --- |
| CCN(CC)CCNC(=O)c1c(C)[nH]c(/C=C2\C(=O)Nc3cc(-c4cnc5ccccc5c4)ccc32)c1C | 4.89 | 4.80 | – | 5.55 | 4.93 | 5.97 |
| Cc1cc(C)c(/C=C2\C(=O)Nc3ccc(-c4cccc5ncccc45)cc32)[nH]1 | 4.87 | 4.96 | 4.88 | 4.88 | 4.40 | – |
| Cc1cc(C)c(/C=C2\C(=O)Nc3ccc(-c4ncccc4C)cc32)[nH]1 | – | 4.65 | 5.10 | 4.39 | – | 8.00 |
| CCN(CC)CCNC(=O)c1c(C)[nH]c(/C=C2\C(=O)Nc3ccc(-c4cnc(-c5ccccc5)cn4)cc32)c1C | 4.76 | 4.77 | 4.59 | 4.41 | 4.36 | – |
| CCN(CC)CCNC(=O)c1c(C)[nH]c(/C=C2\C(=O)Nc3cc(-c4ccc(-c5ccccc5)cn4)ccc32)c1C | 4.70 | – | – | 5.93 | 5.31 | 5.54 |
| CCN(CC)CCNC(=O)c1c(C)[nH]c(/C=C2\C(=O)Nc3ccc(-c4n[nH]c5c(N)cccc45)cc32)c1C | 5.15 | 4.93 | 4.92 | 4.55 | – | 4.51 |
| Cc1ccc(-c2ccc3c(c2)/C(=C/c2[nH]c(C)cc2C)C(=O)N3)nc1 | 4.43 | – | – | – | – | 7.30 |
| CCN(CC)CCNC(=O)c1c(C)[nH]c(/C=C2\C(=O)Nc3ccc(-c4ccc5ccccc5n4)cc32)c1C | 6.04 | 5.74 | 5.56 | – | 5.82 | 6.48 |
| Cc1cc(C)c(/C=C2\C(=O)Nc3ccc(-c4cnc(-c5ccccc5)cn4)cc32)[nH]1 | – | – | – | – | – | 5.17 |
| Cc1ccc(-c2ccc3c(c2)/C(=C/c2[nH]c(C)cc2C)C(=O)N3)cn1 | – | 4.59 | 4.60 | – | – | 8.00 |
| CCN(CC)CCNC(=O)c1c(C)[nH]c(/C=C2\C(=O)Nc3ccc(-c4csc(-c5ccc(C)cc5)n4)cc32)c1C | – | – | – | 5.47 | 4.98 | 6.16 |
| Cc1cc(C)c(/C=C2\C(=O)Nc3ccc(-c4csc(-n5cccn5)n4)cc32)[nH]1 | 4.68 | 5.01 | 5.05 | 4.57 | 4.79 | – |
| Cc1cc(C)c(/C=C2\C(=O)Nc3ccc(-c4ccccn4)cc32)[nH]1 | – | – | – | – | – | 7.70 |
| CCN(CC)CCNC(=O)c1c(C)[nH]c(/C=C2\C(=O)Nc3cc(-c4ccc5ccccc5n4)ccc32)c1C | 4.78 | 4.79 | – | 5.29 | 5.18 | 5.87 |
| Cc1cc(C)c(/C=C2\C(=O)Nc3ccc(-c4ccncc4)cc32)[nH]1 | – | – | – | – | – | 5.16 |
| O=C1Nc2ccc(-c3csc(-c4ccccc4)n3)cc2/C1=C/c1cnc[nH]1 | 5.21 | 4.95 | 5.06 | 5.20 | 6.05 | – |
| O=C1Nc2ccc(-c3csc(-c4ccccc4)n3)cc2/C1=C/c1[nH]cc2ccccc12 | – | – | – | 5.30 | – | 5.39 |
| Cc1[nH]c(/C=C2\C(=O)Nc3ccc(-c4cnn(-c5ccccc5)c4)cc32)c(C)c1C(=O)N1CCN(C)CC1 | 5.44 | 5.16 | 5.47 | 6.51 | 5.35 | – |
| Cc1cc(C)c(/C=C2\C(=O)Nc3ccc(-c4cnc5ccccn45)cc32)[nH]1 | 4.94 | 4.78 | 4.60 | 4.77 | 4.69 | – |
